Legend:
Type in all cases: cell-based
human TLR7 = biological target: T1, human TLR7 (Homo sapiens, UniProt Q9NYK1); test: TLR7 inhibition reporter assay (HEK-Blue cells, SEAP reporter, gardiquimod stimulation); details: HEK-Blue cells overexpressing human TLR7, SEAP reporter, gardiquimod 7.5 μM
T1 construct: host or cells: HEK-Blue cells
T1 sequence (Q9NYK1 27-1049): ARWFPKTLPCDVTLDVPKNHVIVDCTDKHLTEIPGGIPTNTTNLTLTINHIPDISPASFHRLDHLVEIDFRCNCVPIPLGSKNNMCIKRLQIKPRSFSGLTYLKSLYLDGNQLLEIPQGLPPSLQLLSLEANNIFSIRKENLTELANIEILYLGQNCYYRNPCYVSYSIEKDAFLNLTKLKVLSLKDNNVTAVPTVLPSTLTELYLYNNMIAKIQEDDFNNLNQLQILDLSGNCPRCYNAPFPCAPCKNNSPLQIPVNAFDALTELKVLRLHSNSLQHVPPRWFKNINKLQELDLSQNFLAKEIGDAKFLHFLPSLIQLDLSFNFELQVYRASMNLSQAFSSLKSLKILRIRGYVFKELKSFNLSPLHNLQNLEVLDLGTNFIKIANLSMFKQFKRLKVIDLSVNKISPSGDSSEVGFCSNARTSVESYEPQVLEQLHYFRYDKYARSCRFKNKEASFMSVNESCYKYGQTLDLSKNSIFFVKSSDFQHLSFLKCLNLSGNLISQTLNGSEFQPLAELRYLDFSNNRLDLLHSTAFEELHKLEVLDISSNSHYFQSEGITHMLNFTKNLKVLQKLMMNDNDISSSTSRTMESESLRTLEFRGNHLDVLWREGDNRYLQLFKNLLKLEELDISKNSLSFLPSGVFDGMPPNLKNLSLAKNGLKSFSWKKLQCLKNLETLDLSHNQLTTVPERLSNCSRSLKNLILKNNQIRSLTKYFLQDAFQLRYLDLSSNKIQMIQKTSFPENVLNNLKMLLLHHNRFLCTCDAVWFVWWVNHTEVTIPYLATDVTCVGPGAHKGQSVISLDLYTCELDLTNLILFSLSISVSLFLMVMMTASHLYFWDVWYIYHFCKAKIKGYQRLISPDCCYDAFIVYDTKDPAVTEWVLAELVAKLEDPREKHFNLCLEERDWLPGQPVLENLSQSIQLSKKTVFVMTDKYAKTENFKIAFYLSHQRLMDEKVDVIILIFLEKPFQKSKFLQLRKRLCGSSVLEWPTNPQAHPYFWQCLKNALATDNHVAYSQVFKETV
Method: (§1) TLR7/8/9 Inhibition Reporter Assays
(§2) HEK-Blue™-cells (Invivogen) overexpressing human TLR7, TLR8 or TLR9 receptors were used for screening inhibitors of these receptors using an inducible SEAP (secreted embryonic alkaline phosphatase) reporter gene under the control of the IFN-β minimal promoter fused to five NF-κB and AP-1-binding sites. Briefly, cells are seeded into Greiner 384 well plates (15000 cells per well for TLR7, 20,000 for TLR8 and 25,000 for TLR9) and then treated with test compounds in DMSO to yield a final dose response concentration range of 0.05 nM-50 μM. After a 30 minute compound pre-treatment al room temperature, the cells are then stimulated with a TLR7 ligand (gardiquimod at a final concentration of 7.5 μM), TLR8 ligand (R848 at a final concentration of 15.9 μM) or TLR9 ligand (ODN2006 at a final concentration of 5 nM) to activate NF-κB and AP-1 which induce the production of SEAP. After a 22 hour incubation at 37° C., 5% CO2, SEAP levels are determined with the addition of HEK-Blue™ Detection reagent (Invivogen), a cell culture medium that allows for detection of SEAP, according to manufacturer's specifications. The percent inhibition is determined as the % reduction in the HEK-Blue signal present in wells treated with agonist plus DMSO alone compared to wells treated with a known inhibitor.

human TLR9 = biological target: T2, human TLR9 (Homo sapiens, UniProt Q9NR96); test: TLR9 inhibition reporter assay (HEK-Blue cells, SEAP reporter, ODN2006 stimulation); details: HEK-Blue cells overexpressing human TLR9, SEAP reporter, ODN2006 5 nM
T2 construct: host or cells: HEK-Blue cells
T2 sequence (Q9NR96 26-1032): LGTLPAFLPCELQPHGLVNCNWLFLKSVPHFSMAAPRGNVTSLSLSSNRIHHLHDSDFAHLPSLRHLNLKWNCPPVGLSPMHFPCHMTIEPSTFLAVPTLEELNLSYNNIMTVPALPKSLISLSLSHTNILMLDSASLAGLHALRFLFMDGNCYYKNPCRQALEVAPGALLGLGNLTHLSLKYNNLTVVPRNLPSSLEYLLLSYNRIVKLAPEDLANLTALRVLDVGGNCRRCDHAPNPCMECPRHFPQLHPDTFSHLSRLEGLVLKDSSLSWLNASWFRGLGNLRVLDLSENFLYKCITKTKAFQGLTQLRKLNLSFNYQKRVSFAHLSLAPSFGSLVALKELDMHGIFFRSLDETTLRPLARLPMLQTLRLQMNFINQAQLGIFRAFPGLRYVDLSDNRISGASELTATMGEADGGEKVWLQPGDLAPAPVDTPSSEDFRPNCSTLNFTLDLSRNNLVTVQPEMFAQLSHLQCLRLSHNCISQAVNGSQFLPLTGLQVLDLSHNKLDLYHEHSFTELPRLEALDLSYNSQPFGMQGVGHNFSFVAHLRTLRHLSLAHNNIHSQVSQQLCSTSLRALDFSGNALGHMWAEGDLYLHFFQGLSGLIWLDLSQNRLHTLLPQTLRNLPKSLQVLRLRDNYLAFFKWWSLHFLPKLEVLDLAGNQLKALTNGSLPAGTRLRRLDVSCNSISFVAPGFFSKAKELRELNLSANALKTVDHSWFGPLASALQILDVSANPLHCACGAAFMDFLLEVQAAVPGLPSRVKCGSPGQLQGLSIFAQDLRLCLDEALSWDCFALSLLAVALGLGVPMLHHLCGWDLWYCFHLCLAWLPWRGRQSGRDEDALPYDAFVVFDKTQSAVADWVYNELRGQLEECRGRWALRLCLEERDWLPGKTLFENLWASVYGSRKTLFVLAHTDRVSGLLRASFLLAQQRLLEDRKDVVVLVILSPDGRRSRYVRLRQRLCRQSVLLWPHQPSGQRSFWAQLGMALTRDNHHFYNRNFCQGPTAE
Method: as §1, §2

human TLR8 = biological target: T3, human TLR8 (Homo sapiens, UniProt Q9NR97); test: TLR8 inhibition reporter assay (HEK-Blue cells, SEAP reporter, R848 stimulation); details: HEK-Blue cells overexpressing human TLR8, SEAP reporter, R848 15.9 μM
T3 construct: host or cells: HEK-Blue cells
T3 sequence (Q9NR97 27-1041): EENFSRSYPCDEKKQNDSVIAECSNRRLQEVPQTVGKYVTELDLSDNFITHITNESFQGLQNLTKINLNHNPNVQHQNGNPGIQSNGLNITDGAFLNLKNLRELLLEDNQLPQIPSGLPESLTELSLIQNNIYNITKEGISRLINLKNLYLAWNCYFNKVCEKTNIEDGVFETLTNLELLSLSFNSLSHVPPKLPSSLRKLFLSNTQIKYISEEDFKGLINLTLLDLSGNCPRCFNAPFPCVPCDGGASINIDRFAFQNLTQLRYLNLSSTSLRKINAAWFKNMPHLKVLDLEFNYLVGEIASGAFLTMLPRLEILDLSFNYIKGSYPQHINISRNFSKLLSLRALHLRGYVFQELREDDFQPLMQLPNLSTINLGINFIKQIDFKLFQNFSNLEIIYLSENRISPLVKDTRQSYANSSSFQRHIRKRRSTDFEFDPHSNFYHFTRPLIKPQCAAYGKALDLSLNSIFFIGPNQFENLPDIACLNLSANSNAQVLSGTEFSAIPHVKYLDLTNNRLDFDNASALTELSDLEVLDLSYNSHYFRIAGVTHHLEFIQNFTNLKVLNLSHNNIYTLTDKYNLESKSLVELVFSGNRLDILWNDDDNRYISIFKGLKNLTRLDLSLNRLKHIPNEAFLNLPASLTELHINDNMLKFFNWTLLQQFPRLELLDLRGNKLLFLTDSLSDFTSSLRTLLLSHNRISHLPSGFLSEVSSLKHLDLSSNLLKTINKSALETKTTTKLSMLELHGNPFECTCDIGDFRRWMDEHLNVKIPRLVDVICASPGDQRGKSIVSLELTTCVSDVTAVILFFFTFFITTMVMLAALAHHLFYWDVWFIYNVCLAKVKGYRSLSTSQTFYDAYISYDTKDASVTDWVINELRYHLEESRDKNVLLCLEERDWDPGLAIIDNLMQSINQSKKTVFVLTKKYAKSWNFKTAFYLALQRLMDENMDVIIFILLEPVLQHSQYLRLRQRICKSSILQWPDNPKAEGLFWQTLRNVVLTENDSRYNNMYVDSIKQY
Method: as §1, §2

SMILES | IC50 (human TLR7) [nM] | IC50 (human TLR9) [nM] | IC50 (human TLR8) [nM]
COc1cc(-c2[nH]c3ccc(C4CCC(N5CCOCC5)CC4)cc3c2C(C)C)cn2ncnc12 (stereo not shown) [Example 76] | 1 | 2250 | 5.7
COc1cc(-c2[nH]c3ccc(C4CCC(N(C)C5CC5)CC4)cc3c2C(C)C)cn2ncnc12 (stereo not shown) [Example 12] | 0.7 | 2130 | 1.6
Cc1cc(-c2[nH]c3ccc(C4CNCCO4)cc3c2C(C)C)cn2ncnc12 (stereo not shown) [Example 283] | 0.95 | 2670 | 1.3
COc1cc(-c2[nH]c3ccc(C4CCCN(C)C4)cc3c2C(C)C)cn2ncnc12 (stereo not shown) [Example 241] | 0.53 | 1300 | 1.9
COc1cc(-c2[nH]c3ccc(C4CCC(N5CC(F)C5)CC4)cc3c2C(C)C)cn2ncnc12 (stereo not shown) [Example 21] | 0.41 | 2380 | 1.2
COc1cc(-c2[nH]c3ccc(C4CCC(N(C)C(C)C)C4)cc3c2C(C)C)cn2ncnc12 (single isomer, unassigned) [Example 277, N-isopropyl-3-(3-isopropyl-2-(8-methoxy-[1,2,4]triazolo[1,5-a]pyridin-6-yl)-1H-indol-5-yl)-N-methylcyclopentan-1-amine] | 2 | 801 | 4.4
COc1cc(-c2[nH]c3ccc(C4CCC(NC(=O)CNC5COC5)CC4)cc3c2C(C)C)cn2ncnc12 (stereo not shown) [Example 137] | 2 | 26600 | 4.9
COc1cc(-c2[nH]c3ccc(C4CCC(NC(=O)CN5CCOCC5)CC4)cc3c2C(C)C)cn2ncnc12 (stereo not shown) [Example 141] | 2 | 4320 | 18
CCN(CC)CC(=O)N1CCOC(c2ccc3[nH]c(-c4cc(OC)c5ncnn5c4)c(C(C)C)c3c2)C1 (stereo not shown) [Example 333] | 0.71 |  | 4.7
CN[C@H](C)C(=O)N1CCCC(c2ccc3[nH]c(-c4cc(C)nc(C)c4)c(C(C)C)c3c2)C1 (stereo partly shown) [Example 221] |  | 357 | 4.4
COc1cc(-c2[nH]c3ccc(C4CCC(NC(=O)CN5CC(CO)(CO)C5)CC4)cc3c2C(C)C)cn2ncnc12 (stereo not shown) [Example 134] | 1 |  | 2.5
COc1cc(-c2[nH]c3ccc(C4CCC(NC(=O)CNCC5COC(C)(C)O5)CC4)cc3c2C(C)C)cn2ncnc12 (stereo not shown) [Example 136] |  | 19200 | 7.2
Cc1cc(-c2[nH]c3ccc(C4CCC(C)(O)CC4)cc3c2C(C)C)cc(C)n1 (single isomer, unassigned) [Example 170] | 13 |  | 590

Second part, the molecule after the results:

IC50 (human TLR7) [nM] | IC50 (human TLR9) [nM] | IC50 (human TLR8) [nM] | SMILES
418 | 3760 | 27 | CCc1c(-c2ccc(OC)c(OC)c2)[nH]c2ccc(CC3CCCN3)cc12 (stereo not shown) [Example 419]
5 | 2460 | 42 | Cc1c(-c2[nH]c3ccc(C4CCC(NCC(=O)N(C)C)CC4)cc3c2C(C)C)cn2cnnc2c1C (stereo not shown) [Example 517]
43 | 9970 | 25 | Cc1c(-c2[nH]c3ccc(C4CN(CC5CCOC5)C4)cc3c2C(C)C)cn(C)c(=O)c1Cl (stereo not shown) [Example 499]
57 | 10200 | 137 | Cc1c(-c2[nH]c3ccc(C4CNC4)cc3c2C(C)C)cn2cnnc2c1C [Example 531]
25 | > 50000 | 24 | Cc1c(-c2[nH]c3ccc(C4CN(CCS(C)(=O)=O)CCO4)cc3c2C(C)C)cn2ncnc2c1C (stereo not shown) [Example 346]
26 | 10600 | 28 | Cc1c(-c2[nH]c3ccc(C4CCC(N(C)C)CC4)cc3c2C(C)C)cn(C)c(=O)c1C (stereo not shown) [Example 475]
13 | 15600 | 0.72 | Cc1cc(-c2[nH]c3ccc(CCN4CC[C@@H](F)C4)cc3c2C(C)C)cn(C)c1=O [Example 410]
4 |  | 4.5 | Cc1c(-c2[nH]c3ccc(C4CC(NCC#N)C4)cc3c2C(C)C)cn2ncnc2c1C (stereo not shown) [Example 577]
23 |  | 7.4 | Cc1c(-c2[nH]c3ccc(C4CC(NC5COC5)C4)cc3c2C(C)C)cn2ncnc2c1C (stereo not shown) [Example 576]
19 |  | 13 | Cc1c(-c2[nH]c3ccc(C4CNC4)cc3c2C(C)C)cn(C)c(=O)c1C [Example 486]
